Patent publication US8362031B2, “Lonidamine analogues and treatment of polycystic kidney disease” (University of Kansas, priority 2004, dated 2013)

Test system: Salmonella Typhimurium TA 100
Experiment: Ames test for mutagenicity (plate assay, colony count)
Settings: 48 hours at 37° C.; for Ames test (+)S9 0.1 mg/pl. / Ames test (+)S9 1 mg/pl. / Ames test (+)S9 10 mg/pl.: (+)S9 mix; for Ames test (−)S9 0.1 mg/pl. / Ames test (−)S9 1 mg/pl. / Ames test (−)S9 10 mg/pl.: (−)S9 mix

Row | SMILES | Ames test (+)S9 0.1 mg/pl. | Ames test (+)S9 1 mg/pl. | Ames test (+)S9 10 mg/pl. | Ames test (−)S9 0.1 mg/pl. | Ames test (−)S9 1 mg/pl. | Ames test (−)S9 10 mg/pl.
1 | NNC(=O)c1nn(Cc2ccc(Cl)cc2Cl)c2cc(Cl)ccc12 [DD-MC-II, 6-chloro-1-(2,4-dichlorobenzyl)-1H-indazole-3-carboxylic acid hydrazide] | Pass | Pass | Pass | Pass | Pass | Pass
2 | NNC(=O)c1nn(Cc2ccc(Cl)cc2Cl)c2cccnc12 [JWS-1-112, 1-(2,4-dichlorobenzyl)-1H-pyrazolo[4,3-b]pyridine-3-carboxylic acid hydrazide] | Pass | Pass | Pass | Pass | Fail | Fail
3 | O=C(O)c1nn(Cc2ccc(Cl)cc2Cl)c2cnccc12 [JWS-1-132, 1-(2,4-dichlorobenzyl)-1H-pyrazolo[3,4-c]pyridine-3-carboxylic acid] | Pass | Pass | Pass | Pass | Pass | Pass
4 | COC(=O)c1nn(Cc2ccc(Cl)cc2Cl)c2cc(C(F)(F)F)cnc12 [JWS-1-228, 1-(2,4-dichlorobenzyl)-6-trifluoromethyl-1H-pyrazolo[4,3-b]pyridine-3-carboxylic acid methyl ester] | Pass | Pass | Pass | Pass | Pass | Pass
5 | O=C(O)c1nn(Cc2ccc(Cl)cc2Cl)c2cc(C(F)(F)F)cnc12 [JWS-1-230, 1-(2,4-dichlorobenzyl)-6-trifluoromethyl-1H-pyrazolo[4,3-b]pyridine-3-carboxylic acid] | Pass | Pass | Pass | Pass | Pass | Pass
6 | NNC(=O)c1nn(Cc2ccc(Cl)cc2Cl)c2cc(C(F)(F)F)cnc12 [JWS-1-232, 1-(2,4-dichlorobenzyl)-6-trifluoromethyl-1H-pyrazolo[4,3-b]pyridine-3-carboxylic acid hydrazide] | Pass | Pass | Pass | Pass | Pass | Pass
7 | NNC(=O)c1nn(Cc2ccc(Cl)cc2Cl)c2ccc(C(F)(F)F)cc12 [JWS-1-258, 1-(2,4-dichlorobenzyl)-5-trifluoromethyl-1H-indazole-3-carboxylic acid hydrazide] | Pass | Pass | Pass | Pass | Pass | Pass
8 | O=C(O)c1nn(Cc2ccc(Cl)cc2Cl)c2ccc(C(F)(F)F)cc12 [JWS-1-260, 1-(2,4-dichlorobenzyl)-5-trifluoromethyl-1H-indazole-3-carboxylic acid] | Pass | Pass | Pass | Pass | Pass | Pass
9 | O=C(O)/C=C/c1nn(Cc2ccc(Cl)cc2Cl)c2ccc(C(F)(F)F)cc12 [JWS-1-268, 3-[1-(2,4-dichlorobenzyl)-5-trifluoromethyl-1H-indazol-3-yl]-acrylic acid] | Pass | Pass | Pass | Pass | Pass | Pass
10 | O=C(O)c1nn(Cc2ccc(F)cc2F)c2cc(Cl)ccc12 [JWS-1-284, 1-(2,4-difluorobenzyl)-6-chloro-1H-indazole-3-carboxylic acid] | Pass | Fail | Fail | Pass | Fail | Fail
11 | O=C(O)/C=C/c1nn(Cc2ccc(F)cc2F)c2cc(C(F)(F)F)ccc12 [JWS-1-294, 3-[1-(2,4-difluorobenzyl)-6-trifluoromethyl-1H-indazol-3-yl]-acrylic acid] | Pass | Pass | Pass | Pass | Pass | Pass
12 | O=C(O)/C=C/c1nn(Cc2ccc(F)cc2F)c2cc(Cl)ccc12 [JWS-1-298, 3-[1-(2,4-difluorobenzyl)-6-chloro-1H-indazol-3-yl]-acrylic acid] | Pass | Fail | Fail | Pass | Fail | Fail
13 | COC(=O)c1nn(Cc2ccc(F)cc2F)c2ccc(C(F)(F)F)cc12 [JWS-1-300, 1-(2,4-difluorobenzyl)-5-trifluoromethyl-1H-indazole-3-carboxylic acid methyl ester] | Pass | Fail | Fail | Pass | Fail | Fail
14 | NNC(=O)c1nn(Cc2ccc(F)cc2F)c2ccc(C(F)(F)F)cc12 [JWS-1-302, 1-(2,4-difluorobenzyl)-5-trifluoromethyl-1H-indazole-3-carboxylic acid hydrazide] | Pass | Pass | Fail | Pass | Pass | Pass
15 | O=C(O)c1nn(Cc2ccc(F)cc2F)c2ccc(C(F)(F)F)cc12 [JWS-2-1, 1-(2,4-difluorobenzyl)-5-trifluoromethyl-1H-indazole-3-carboxylic acid] | Pass | Pass | Pass | Pass | Mar- | Fail
16 | O=C(O)/C=C/c1nn(Cc2ccc(F)cc2F)c2ccc(C(F)(F)F)cc12 [JWS-2-10, 3-[1-(2,4-difluorobenzyl)-5-trifluoromethyl-1H-indazol-3-yl]-acrylic acid] | Pass | Pass | Pass | Pass | Pass | Pass
17 | O=C(O)c1nn(Cc2ccc(F)cc2Cl)c2cc(C(F)(F)F)ccc12 [JWS-2-14, 1-(2-chloro-4-fluorobenzyl)-6-trifluoromethyl-1H-indazole-3-carboxylic acid] | Pass | Pass | Fail | Pass | Fail | Fail
18 | COC(=O)c1nn(Cc2ccc(F)cc2Cl)c2cc(Cl)ccc12 [JWS-2-18, 1-(2-chloro-4-fluorobenzyl)-6-chloro-1H-indazole-3-carboxylic acid methyl ester] | Pass | Fail | Fail | Pass | Pass | Mar-
19 | O=C(O)c1nn(Cc2ccc(F)cc2Cl)c2cc(Cl)ccc12 [JWS-2-20, 1-(2-chloro-4-fluorobenzyl)-6-chloro-1H-indazole-3-carboxylic acid] | Pass | Fail | Fail | Mar- | Fail | Fail
20 | O=C(O)/C=C/c1nn(Cc2ccc(F)cc2Cl)c2cc(Cl)ccc12 [JWS-2-36, 3-[1-(2-chloro, 4-fluorobenzyl)-6-chloro-1H-indazol-3-yl]-acrylic acid] | Pass | Pass | Pass | Pass | Fail | Pass
21 | O=C(O)/C=C/c1nn(Cc2ccc(F)cc2Cl)c2cc(C(F)(F)F)ccc12 [JWS-2-40, 3-[1-(2-chloro, 4-fluorobenzyl)-6-trifluoromethyl-1H-indazol-3-yl]-acrylic acid] | Pass | Pass | Pass | Pass | Pass | Mar-
22 | O=C(O)/C=C/c1nn(Cc2ccc(Cl)cc2Cl)c2ncccc12 [RC-MC-65, 3-[1-(2,4-dichlorobenzyl)-1H-pyrazolo[3,4-b]pyridine-3-yl]-acrylic acid] | Pass | Fail | Fail | Pass | Fail | Fail
23 | COC(=O)C=Cc1nn(Cc2ccc(Cl)cc2Cl)c2cc(C(F)(F)F)ccc12 [RC-MC-200] | Pass | Fail | Fail | Pass | Pass | Pass
24 | NNC(=O)/C=C/c1nn(Cc2ccc(Cl)cc2Cl)c2cc(C(F)(F)F)ccc12 [RC-MC-205, 3-[1-(2,4-dichlorobenzyl)-6-trifluoromethyl-1H-indazol-3-yl]-acrylic acid hydrazide] | Pass | Fail | Fail | Pass | Fail | Mar-
